Reference: EP4309652A1, “COMPOSITION FOR USE IN THE PREVENTION AND/OR TREATMENT OF DISEASES MEDIATED BY TLR4, IL1R, COX1/2 AND/OR RBP4” (Servizo Galego de Saúde (SERGAS), priority 2022, dated 2024)
“Also recorded” adds a separate entry of the source.

How the values were obtained:
IL1R [1] = experiment: RT-PCR, IL1β-induced mRNA expression of LCN2, IL6 and NOS2 in ATDC5 cells; type: cell-based, murine; conditions: IL1β (0,5 ng/ml), 24h
Method: (§1) ATDC-5 cells were seeded in 12-well plates. Cells were seeded in a monolayer. After adhesion and incubation overnight in serum-free conditions (starvation), ATDC5 cells were stimulated for 24 h with LPS [100 ng/ml] or IL-1β [0,5 ng/ml] in the presence or absence of the compounds of the invention [10-100 µM].
(§2) RNA was extracted using E.Z.N.A solation reagent (Omega) according to manufacturer's protocol. Relative quantitation was performed using the ΔΔC Comparative Method and the MxPro software (Stratagene, CA, USA) as the ratio of each gene to the expression of the housekeeping gene. Data are shown as mean ± S.E.M (error bars) of at least three independent experiments and represented as fold-change vs. controls.

ATDC5 cells = experiment: Nitrite assay (Griess reaction), NO production; type: cell-based, murine; conditions: LPS (100 ng/ml) or IL1B (0,5 ng/ml), 24h
Method: ATDC-5 cells were seeded in 12-well plates. Cells were seeded in a monolayer. After adhesion and incubation overnight in serum-free conditions (starvation), ATDC5 cells were stimulated for 24 h with LPS [100 ng/ml] or IL-1β [0,5 ng/ml] in the presence or absence of the compounds of the invention [10-100 µM]. As described above, 1×10^5 ATDC5 cells were seeded and treated for 24 h. Nitrite accumulation was determined in the culture medium using the Griess reaction. As previously described, after diazonium salt was dissolved, absorbance was measured at 550 nm in a microplate reader.

TLR4 [2] = experiment: RT-PCR, LPS-induced mRNA expression of LCN2, IL6 and NOS2 in ATDC5 cells; type: cell-based, murine; conditions: LPS (100 ng/ml), 24h
Method: as §1, §2

TLR4 [3] = experiment: Western blot, NOS2 protein expression in LPS-stimulated ATDC5 cells; type: cell-based, murine; conditions: LPS (100 ng/ml), 24h
Method: as §1
(§3) Whole-cell protein extraction was performed using lysis buffer (RIPA Buffer). Immunoblots were incubated with the appropriated antibodies [INOS (rabbit polyclonal antibody) diluted 1:1000 (Thermo Fisher Scientific, MA, USA), IG (anti-rabbit antibody) diluted 1:5000 (Jackson ImmunoResearch Laboratories Inc., USA), b-actin (mouse polyclonal antibody) (Thermo Fisher Scientific, MA, USA) diluted 1:6500 and IG (anti-mouse antibody) diluted 1:10000] (Jackson ImmunoResearch Laboratories Inc., USA).
(§4) Then, all immunoblots were visualized using an Immobilon Western kit (Millipore, MA, USA). Blots densitometries were generated using a ChemiDoc MP Imaging System and analysed using Image J software (National Institutes of Health, Bethesda, MD, USA).

IL1R [4] = experiment: Western blot, NOS2 protein expression in IL1β-stimulated ATDC5 cells; type: cell-based, murine; conditions: IL1β (0,5 ng/ml), 24h
Method: as §1, §3, §4

[5] = tested on: primary human osteoarthritis chondrocytes and osteoblasts; experiment: RT-PCR, inflammatory and catabolic marker genes in TLR4- and IL1R-activated primary cells; type: cell-based; conditions: 50 µM, 24h, LPS (100 ng/ml) or IL1β (0,5 ng/ml)
Method: as §2
According to the results obtained in ATDC5 cells, we selected the concentration 50 µM and co-treated the primary cells with inflammatory stimuli for 24h at the same concentrations [LPS (100 ng/ml), and IL1β (0,5 ng/ml)].

RBP4 = RBP4 mRNA expression in chondrocytes; type: cell-based; conditions: basal or inflammatory conditions (LPS or IL1β), 50 and 100 µM of PJ
Method: as §2

CC(=O)OC(/C=C\C1CC=CC(=O)O1)CC(OC(C)=O)C(C)OC(C)=O (stereo not drawn) [Hyptolide]
concentration of inhibitory activity on IL1β-induced mRNA expression (IL1R [1]): 100 µM

CC(=O)OC(/C=C\C1OC(=O)C=CC1OC(C)=O)CC(OC(C)=O)C(C)OC(C)=O (stereo not drawn) [Pectinolide E]
concentration of inhibitory activity on IL1β-induced mRNA expression (IL1R [1]): 50 µM

CC(=O)OC(/C=C\C1OC(=O)C=CC1O)CC(OC(C)=O)C(C)OC(C)=O (stereo not drawn) [Pectinolide J]
NO production induced by LPS and IL1β (ATDC5 cells): maximum inhibitory activity
concentration of maximum inhibitory activity on induced NO production (ATDC5 cells): 10 to 25 µM
LPS-induced mRNA expression of LCN2, IL6 and NOS2 (TLR4 [2]): highest anti-inflammatory activity
IL1β-induced expression of LCN2, IL6 and NOS2 (IL1R [1]): maximum inhibitory activity
concentration of inhibitory activity on IL1β-induced mRNA expression (IL1R [1]): 10 µM
NOS2 protein expression (250 kDa dimer), LPS-induced (TLR4 [3]): highest reduction of NOS2 expression
NOS2 protein expression (250 kDa dimer), IL1β-induced (IL1R [4]): highest reduction of NOS2 expression
inflammatory and catabolic marker genes (LCN2, NOS2, IL6, MMP3) induced by the inflammatory stimuli [5]: maximum anti-inflammatory activity
RBP4 mRNA expression (RBP4): downregulates

COc1ccc2c(c1)c(CC(=O)O)c(C)n2C(=O)c1ccc(Cl)cc1 [Indomethacin, reference compound]
NO production induced by LPS and IL1β (ATDC5 cells): did not suppress; also recorded: did not significantly inhibit
